Measured values published in PMC9786170, “The Pharmacological Potential of Novel Melittin Variants from the Honeybee and Solitary Bees against Inflammation and Cancer” (Toxins, 2022).
“Also recorded” adds a separate entry of the source.

Key:
Assay type in all cases: cell-based, human
HEK293T cells [1] = assay: Cell viability assay (WST-8/Orangu formazan) in HEK293T cells; conditions: 25 µg/mL, 24 h, WST-8 formazan absorbance, n = 4
Experimental: (§1) Figure 1 Toxicity characterization of cells treated with melittin peptides. (A,B) For the viability assay, RAW264.7 (A) or HEK293T (B) cells were treated with bee venom compounds in the indicated concentrations for 24 h. Cells were incubated with WST-8 and the formed formazan was detected by absorbance measurements. (C) For the proliferation assay, HMEC-1 cells were grown in low density and treated after 24 h with the indicated peptide (25 µg/mL) for 72 h. Cells were stained with crystal violet solution. The amount of DNA-bound crystal violet was detected by absorbance measurements. (D) The number of sub-diploidic cells was determined by staining with propidium iodide (PI) and quantified to assess apoptosis of HUVECs. Data are expressed as mean ± SEM. (A) n = 3, (B) n = 4, (C) n = 2–3, (D) n = 2. * p ≤ 0.05 versus control.
For assessing the cytotoxicity of all peptides, various cell types and assays were utilized. […] After incubation, absorbance was measured at a wavelength of 450 nm with a reference at 650 nm at an EnSpire 2300 Multimode Plate Reader (Perkin Elmer, Lübeck, Germany). To calculate cell viability, the absorbance of vehicle-treated cells was set to 100%, and the melittin derivates-treated samples were correlated to them.

MDA-MB-231 cells = assay: Proliferation assay (crystal violet) in MDA-MB-231 cells; conditions: n = 2; for anti-proliferative activity, 72 h: MDA-MB-231, 25 µg/mL, crystal violet
Experimental: Figure 5 Anti-proliferative and apoptotic effect of melittin derivates on the triple-negative breast cancer cell line MDA-MB-231. (A) For the proliferation assay, cells were grown in low density and were treated after 24 h with melittin peptides at a concentration of 25 µg/mL for 72 h. Cells were stained with crystal violet solution. The amount of DNA-bound crystal violet was detected by absorbance measurements. (B) Melt3, 4, and Xac4, which are non-toxic to healthy cells, were further used to test effects on proliferation at 24 h (left) and 48 h (right) at different concentrations. (C) The effects on apoptosis were detected by flow cytometry after 24 h (left), 48 h (middle), and 72 h (right) of treatment. The number of apoptotic cells was determined by staining with propidium iodide (PI). Data are expressed as mean ± SEM. n = 2, * p ≤ 0.05 versus control. Sts, staurosporin 1 µM.
HMECs (2000 cells/well) were seeded into collagen-coated 96-well plates and grown for 24 h. Then, they were treated with melittin peptides. Treated cells were cultured for 72 h, whereas untreated control cells, directly after 24 h, were fixed with a methanol-ethanol (2:1) solution and washed with PBS before they were stained using a crystal violet solution (20% methanol). Similarly, at the end of incubation time, cells treated with melittin peptides were fixed, stained, and unbound crystal violet was removed by washing with distilled water. Finally, cells were left to air dry, and DNA-bound crystal violet was dissolved using an acetic acid solution (20%, Sigma-Aldrich, Steinheim, Germany). Absorbance was measured at 590 nm using a plate reader (Infinite F200Pro, Tecan, Männedorf, Switzerland). The proliferation percentage was calculated by normalizing to the untreated control (24 h) and compared to the DMSO control (0.03%) of 72 h incubation. Similarly, MDA-MB-231 cells (6000 cells/well) were seeded into 96-well plates, and their proliferation ability under treatment conditions was tested as described above.

HMEC-1 cells = assay: Proliferation assay (crystal violet) in HMEC-1 cells; conditions: HMEC-1, 25 µg/mL, 72 h, n = 2–3
Experimental: as §1
HMECs (2000 cells/well) were seeded into collagen-coated 96-well plates and grown for 24 h. Then, they were treated with melittin peptides. […] Absorbance was measured at 590 nm using a plate reader (Infinite F200Pro, Tecan, Männedorf, Switzerland). The proliferation percentage was calculated by normalizing to the untreated control (24 h) and compared to the DMSO control (0.03%) of 72 h incubation. […]

HEK293T cells [2] = assay: Ca2+ induction assay (Fluo-8); conditions: Fluo-8, 0.25, 2.5, 25 µg/mL, partly already at 2.5 µg/mL, n = 4
Experimental: Figure 2 Melittin derivates influence cellular Ca^2+ and IP1 levels. (A) For the Ca^2+ induction assay, Fluo-8 pretreated HEK293-T cells were incubated with melittin derivates in the indicated concentrations and the fluorescence was detected. (B) For the Ca^2+ inhibition assay, Fluo-8 pretreated HEK293-T cells were incubated with peptides in the indicated concentrations for 30 min, stimulated with 5 µM ionomycin, and the fluorescence was detected. (C) IP3 has a short lifetime and is rapidly degraded to IP1; therefore, IP1 was determined. For the IP1/IP3 induction assay (left panel), HEK293T cells were incubated with melittin peptides in the indicated concentration for 2 h, a detection reagent was added, and the fluorescence resonance energy transfer signal was detected. For the IP1/IP3 inhibition assay (right panel), HEK293T cells were incubated with melittin peptides in the indicated concentration for 30 min and stimulated with 20 µM ionomycin for 1.5 h. After the addition of the detection reagent, the fluorescence resonance energy transfer signal was detected. Data are expressed as mean ± SEM. (A, B, C (left)) n = 4, (C (right)) n = 3. * p ≤ 0.05 versus control.
For analysis, 5 × 10^4 HEK293 cells or 2 × 10^4 MDA-MB-231 cells were seeded in a 96-well poly-D-lysine plate, incubated at 37 °C for 24 h, and treated with 4 µM Fluo-8-AM in HBSS for 1 h at 37 °C. After 1 h, the Fluo-8/HBSS was replaced by 100 µL HBSS. Five images per second were taken using an ImageXpress Micro Confocal High Content Imaging System (Molecular Device, San Jose, CA, USA). Melittin peptides (0.25, 2.5, and 25 µg/mL), DMSO (negative control), or 5 µM ionomycin (Sigma Aldrich; Taufkirchen, Germany) (positive control) were added to the cells. For the next 20 s, an image was obtained every second. For the inhibition assay, the peptide-treated samples (30 min) were treated with 5 µM ionomycin and for the next 20 s, an image was obtained every second. The data were analyzed with the MetaXpress Software Version 6 (Molecular Devices, San Jose, CA, USA). A threshold of fluorescence intensity was defined using cells before treatment, and all cells with a fluorescence signal above the threshold level were counted. For the induction assay, the number of cells above the threshold in the toxin-treated samples were related to the cells in the DMSO-treated sample. For the inhibition assay, the number of cells above the threshold in the melittin-treated samples were related to the cells in the ionomycin-treated sample.

Substance	cytotoxicity (cell viability) (HEK293T cells [1])	anti-proliferative activity, 72 h (MDA-MB-231 cells)	proliferation (HMEC-1 cells)	induction of Ca2+ release (HEK293T cells [2])	proliferation at 24 h and 48 h, concentration range (MDA-MB-231 cells; MDA-MB-231, 24 h and 48 h, different concentrations, Melt4 effect at 10 and 25 µg/mL)
melittin [Melt, reference compound]	showed cytotoxicity	exhibited anti-proliferative activity	proliferation was hindered	induced a significant release of Ca^2+; also recorded: induce Ca^2+ release	
xylopin [Xac4]	showed cytotoxicity	exhibited anti-proliferative activity; also recorded: anti-proliferative effects on breast cancer cells	proliferation was augmented	induce Ca^2+ release	trend of decreased proliferation
